EC50 data for 64 compounds are collected here from patent US9708359B2, “Pyrrolopyrimidine nucleosides and analogs thereof” (Chimerix, Inc., priority 2015, dated 2017).

The test deals with mouse norovirus. Nature of the test: Mouse Norovirus (MNV) assay in RAW cells. Particulars: murine norovirus.
Setting [1] is: Table 8, N/A = assayed but no EC50 value could be measured.

Several values for one entry are separate records, joined by “and”; a condition that tells them apart may be missing. Equal values may be shown once. Bounds are passed on as bounds.

On to `NC(=S)c1cn([C@@H]2O[C@H](CO)[C@@H](O)[C@H]2O)c2nc(-c3ccccc3)nc(N)c12` [Compound 16], for which, under setting [1], the EC50 was more than 100 µM.

Compound `Cc1nc(N)c2c(C(N)=O)cn([C@@H]3O[C@H](COP(=O)(N[C@@H](C)C(=O)OC(C)C)Oc4ccccc4)[C@@H](OC(=O)C(C)C)[C@H]3OC(=O)C(C)C)c2n1` (stereo partly shown) [Compound 133] had an EC50 (Table 7) of 25.7 µM.

As to `CCCC(CCC)C(=O)Nc1nc(C)nc2c1c(C(N)=O)cn2[C@@H]1O[C@H](CO)[C@@H](O)[C@H]1O` [Compound 131], the EC50 under setting [1] was more than 100 µM. Still for that read-out and setting: for `Cc1nc(O)c2c(C#N)cn([C@@H]3O[C@H](CO)[C@@H](O)[C@H]3O)c2n1` [Compound 31] the value was more than 100 µM; for `NC(=O)c1cn([C@@H]2O[C@H](CO)[C@@H](O)[C@H]2O)c2nc(-c3ccccc3)nc(N)c12` [Compound 15], more than 100 µM; for `Cc1nc(N)c2c(C(N)=O)cn(C[C@H](O)CO)c2n1` [Compound 50], more than 100 µM.

For the compound `Cc1nc(NO)c2c(C(N)=O)cn([C@@H]3O[C@H](CO)[C@@H](O)[C@H]3O)c2n1` [Compound 94], the EC50 under setting [1] was more than 100 µM.

For `CNc1nc(C)nc2c1c(C(N)=O)cn2[C@@H]1O[C@H](CO)[C@@H](O)[C@H]1O` [Compound 36], under setting [1], the EC50 is more than 100 µM.

`Cc1nc(N)c2c(C(N)=O)cn([C@@H]3O[C@H](COC(=O)[C@@H](N)CC(C)C)[C@@H](O)[C@H]3O)c2n1` [Compound 77]: a half-maximal response (Table 7) (EC50) required 4.4 µM.

The compound `Cc1nc(Cl)c2ccn(C[C@H](O)CO)c2n1` [Compound 98] had an EC50 under setting [1] of more than 100 µM.

For `Cc1nc(N)c2c(C(N)=O)cn([C@@H]3O[C@H](COP(=O)(N[C@@H](C)C(=O)OCc4ccccc4)N[C@H](C)C(=O)OCc4ccccc4)[C@@H](O)[C@H]3O)c2n1` [Compound 126], the EC50 (Table 7) is 33.6 µM and 38.9 µM.

Under setting [1], `Cc1nc(N)c2ccn([C@@H]3O[C@H](COCc4ccccc4)[C@@H](O)[C@H]3O)c2n1` [Compound 82] had an EC50 of more than 100 µM. Take `NC(=O)c1cn([C@@H]2O[C@H](CO)[C@@H](O)[C@H]2O)c2nc(CO)nc(N)c12` [Compound 99]: the EC50 under setting [1] is more than 100 µM.

In turn, `CCCCCCCCCCCCCCCCOCCCOC(=O)[C@H](C)NP(=O)(OC[C@H]1O[C@@H](n2cc(C(N)=O)c3c(N)nc(C)nc32)[C@H](O)[C@@H]1O)Oc1ccccc1` (stereo partly shown) [Compound 139] showed an EC50 (Table 7) of 2.3 µM. Under setting [1], `C=Cc1c(C(N)=O)c2c(N)nc(C)nc2n1[C@@H]1O[C@H](CO)[C@@H](O)[C@H]1O` [Compound 144] returned an EC50 of more than 100 µM. On the same count and under the same terms, to `Cc1nc(N)c2c(C(N)=O)cn([C@@H]3O[C@H](C(C)O)[C@@H](O)[C@H]3O)c2n1` (stereo partly shown) [Compound 102] belongs more than 100 µM; to `N#Cc1cn([C@@H]2O[C@H](CO)[C@@H](O)[C@H]2O)c2nc(-c3ccccc3)nc(N)c12` [Compound 17], more than 100 µM.

Under setting [1], `Cc1nc(Cl)c2c(C#N)cn([C@@H]3O[C@H](CO)[C@@H](O)[C@H]3O)c2n1` [Compound 29] displayed an EC50 of more than 100 µM. As for `CCOP(=O)(CO[C@H](C)Cn1cc(C(N)=O)c2c(N)nc(C)nc21)OCC` [Compound 58], the EC50 under setting [1] is more than 100 µM. For the compound `CCCCCCCCCCCCCCCCOCCC(=O)OC[C@H]1O[C@@H](n2cc(C(N)=O)c3c(N)nc(C)nc32)[C@H](O)[C@@H]1O` [Compound 4], for the setting “Table 7”, a half-maximal effect (EC50) was put at 3.5 µM. Under setting [1], `Cc1nc(N)c2c(C(N)=O)cn([C@H]3C[C@H](O)[C@@H](CO)O3)c2n1` [Compound 92] showed a half-maximal effective concentration (EC50) of more than 100 µM. On to `Cc1nc(N)c2c(C(N)=O)cn([C@@H]3O[C@H](OCP(=O)(O)O)[C@@H](O)[C@H]3O)c2n1` [Compound 70], for which the EC50 under setting [1] is more than 100 µM. On the same count and under the same terms, for `CCOP(=O)(C[C@H]1O[C@@H](n2cc(C(N)=O)c3c(N)nc(C)nc32)[C@H](O)[C@@H]1O)OCC` [Compound 74] the value was more than 100 µM.

The compound `Cc1nc(N)c2c(C(N)=O)cn([C@@H]3O[C@H](CP(=O)(O)O)[C@@H](O)[C@H]3O)c2n1` [Compound 75] gave an EC50 under setting [1] of more than 100 µM. `Cc1nc(N)c2c(C(N)=O)cn([C@@H]3O[C@H](CO)[C@@H](O)C3(F)F)c2n1` [Compound 40] yielded an EC50 under setting [1] of more than 100 µM.

The compound `CNC(=O)c1cn([C@@H]2O[C@H](CO)[C@@H](O)[C@H]2O)c2nc(C)nc(N)c12` [Compound 39] displayed an EC50 under setting [1] of more than 100 µM.

For `CC(=O)Nc1nc(C)nc2c1c(C(N)=O)cn2[C@@H]1O[C@H](COC(C)=O)[C@@H](OC(C)=O)[C@H]1OC(C)=O` [Compound 128], the EC50 under setting [1] is more than 100 µM. The same measure, in the same setting: for `Cc1nc(N)c2c(C(=N)NO)cn([C@@H]3O[C@H](CO)[C@@H](O)[C@H]3O)c2n1` [Compound 85] the value was more than 100 µM.

Compound `[2H][C@@]1(n2cc(C(N)=O)c3c(N)nc(C)nc32)O[C@H](CO)[C@@H](O)[C@H]1O` [Compound 6] displayed an EC50 (Table 7) of 3.08 µM. With `Cc1nc(N)c2ccn([C@@H]3O[C@H](CO)[C@@H](O)[C@H]3O)c2n1` [Compound 48], under setting [1], the EC50 was more than 100 µM.

As to `Cc1nc(N)c2c(I)cn([C@@H]3O[C@H](CO)[C@@H](O)[C@H]3O)c2n1` [Compound 14], the EC50 under setting [1] is more than 100 µM. Still for that read-out and setting: to `Cc1nc(N)c2c(C(N)=O)cn(C[C@H](C)O)c2n1` [Compound 51] belongs more than 100 µM; to `Cc1nc(N)c2c(C(N)=O)cn(C[C@@H](CO)OCP(=O)(O)O)c2n1` [Compound 52], more than 100 µM.

As to `CCOP(=O)(CO[C@H]1O[C@@H](n2cc(C#N)c3c(N)nc(C)nc32)[C@H](O)[C@@H]1O)OCC` [Compound 68], under setting [1], the EC50 is more than 100 µM.

Take `CCc1nc(N)c2c(C(N)=O)cn([C@@H]3O[C@H](CO)[C@@H](O)[C@H]3O)c2n1` [Compound 13]: under setting [1], the EC50 was more than 200 µM. On the same count and under the same terms, for `Cc1nc(N)c2c(C(N)=O)cn([C@@H]3O[C@@H](CO)[C@@H](O)[C@H]3O)c2n1` [Compound 109] the value was more than 100 µM. Turning to `CC#Cc1nc(N)c2c(C(N)=O)cn([C@@H]3O[C@H](CO)[C@@H](O)[C@H]3O)c2n1` [Compound 90], under setting [1], the EC50 was more than 100 µM. `Cc1nc(N)c2c(C(N)=O)cn([C@@H]3O[C@H](COC(=O)[C@H](C)N)[C@@H](O)[C@H]3O)c2n1` [Compound 3] came in with an EC50 (Table 7) of 2 µM. Under setting [1], `COC(=N)c1cn([C@@H]2O[C@@](CO)(N=[N+]=[N-])[C@@H](O)[C@H]2O)c2nc(C)nc(N)c12` [Compound 100] gave an EC50 of more than 100 µM.

The compound `CCCCCCCCCCCCCCCOCCCOP(=O)(O)COC[C@H]1O[C@@H](n2cc(C(N)=O)c3c(N)nc(C)nc32)[C@@H]2OC(C)(C)O[C@@H]21` [Compound 22] had an EC50 under setting [1] of more than 100 µM. Same read-out and setting: for `Cc1nc(N)c2c(C(N)=O)cn([C@@H]3O[C@H](C)[C@@H](O)[C@H]3O)c2n1` [Compound 97] the value was more than 100 µM.

The compound `N#Cc1nc(N)c2c(C(N)=O)cn([C@@H]3O[C@H](CO)[C@@H](O)[C@H]3O)c2n1` [Compound 89] displayed an EC50 under setting [1] of more than 100 µM. The same measure, in the same setting: for `Cc1nc(N)c2c(C(N)=O)cn([C@@H]3O[C@H](COC(=O)[C@@H](N)C(C)C)[C@@H](OC(=O)C(N)C(C)C)[C@@]3(C)O)c2n1` (stereo partly shown) [Compound 93] the value was more than 100 µM; for `Cc1nc(N)c2c(C(N)=O)cn([C@@H]3O[C@@](CO)(N=[N+]=[N-])[C@@H](O)[C@H]3O)c2n1` [Compound 105], more than 100 µM; for `COC(=O)c1c[nH]c2nc(C)nc(Cl)c12` [Compound 45], more than 100 µM. On the same count and under the same terms, for `CC(=O)OC[C@H]1O[C@@H](n2cc(C(N)=O)c3c(N)nc(C)nc32)[C@H](OC(C)=O)[C@@H]1OC(C)=O` [Compound 129] the value was 88.7 µM. `Cc1nc(N)c2c(C(N)=O)cn([C@@H]3O[C@H](COC(=O)[C@@H](NC(=O)OCC4C5C=CC=CC5C5C=CC=CC54)C(C)C)[C@@H](O)[C@H]3O)c2n1` (stereo partly shown) [Compound 63]: the EC50 under setting [1] was more than 100 µM.

For the compound `Cc1nc(N)c2c(C(N)=O)cn([C@@H]3O[C@H](COC(=O)[C@@H](N)C(C)C)[C@@H](O)[C@H]3O)c2n1` [Compound 2], the EC50 (Table 7) lay in the range of 1.9 to 4.15 µM. Take `Cc1ncc2c(C(N)=O)cn([C@@H]3O[C@H](CO)[C@@H](O)[C@H]3O)c2n1` [Compound 35]: under setting [1], the EC50 was more than 100 µM.

In the case of `Cc1nc(N)c2c(C(N)=O)cn([C@@H]3O[C@H](COCc4ccccc4)[C@@H](O)[C@H]3O)c2n1` [Compound 19], the EC50 under setting [1] is more than 100 µM.

For `Cc1nc(N)c2c(S(=O)(=O)O)cn([C@@H]3O[C@H](CO)[C@@H](O)[C@H]3O)c2n1` [Compound 84], the EC50 under setting [1] was more than 100 µM. With `Cc1nc(N)c2c(C(N)=O)cn([C@@H]3O[C@H](COP(=O)(N[C@@H](C)C(=O)OC(C)C)Oc4ccccc4)[C@@H](O)[C@H]3O)c2n1` (stereo partly shown) [Compound 132], under setting [1], the EC50 was more than 100 µM. `Cc1nc(N)c2c(C(N)=O)c(Br)n([C@@H]3O[C@H](CO)[C@@H](O)[C@H]3O)c2n1` [Compound 44] returned an EC50 under setting [1] of more than 100 µM. Same read-out and setting: for `CCCCCCCCCCCCCCCCOCCCC(=O)Nc1nc(C)nc2c1c(C(N)=O)cn2[C@@H]1O[C@H](CO)[C@@H](O)[C@H]1O` [Compound 130] the value was 42.7 µM; for `CCOP(=O)(CO[C@@H]1C=C[C@H](n2cc(C#N)c3c(Cl)nc(C)nc32)O1)OCC` [Compound 116], more than 100 µM. Under “Table 7”, `Cc1nc(N)c2c(C(N)=O)cn([C@@H]3O[C@H](COP(=O)(N[C@@H](C)C(=O)OCc4ccccc4)Oc4ccccc4)[C@@H](O)[C@H]3O)c2n1` (stereo partly shown) [Compound 107] yielded an EC50 of 18.1 µM. In turn, `Cc1nc(N)c2ccn(C[C@H](C)O)c2n1` [Compound 54] displayed an EC50 under setting [1] of more than 100 µM. As for `Cc1nc(N)c2c(C(N)=O)cn([C@H]3C=C[C@@H](O)O3)c2n1` [Compound 124], under setting [1], the concentration giving a half-maximal response (EC50) is more than 100 µM. Regarding `Cc1nc(N)c2c(C(N)=O)cn([C@@H]3O[C@H](COP(=O)(O)O)[C@@H](O)[C@H]3O)c2n1` [Compound 71], the EC50 (Table 7) stood at 3.15 µM.

In turn, `COc1nc(C)nc2c1c(CN)cn2[C@@H]1O[C@H](CO)[C@@H](O)[C@H]1O` [Compound 47] returned an EC50 under setting [1] of more than 100 µM. On the same count and under the same terms, to `CSc1nc(C)nc2c1c(I)cn2[C@@H]1O[C@H](CO)[C@@H](O)[C@H]1O` [Compound 43] belongs more than 100 µM. Still for that read-out and setting: for `Cc1nc(N)c2c(C(=N)N)cn([C@@H]3O[C@H](CO)[C@@H](O)[C@H]3O)c2n1` [Compound 91] the value was more than 100 µM. Still for that read-out and setting: for `CCOP(=O)(COC(CO)Cn1cc(C(N)=O)c2c(N)nc(C)nc21)OCC` (stereo not shown) [Compound 64] the value was more than 100 µM; for `Cc1nc(N)c2c(-c3nn[nH]n3)cn([C@@H]3O[C@H](CO)[C@@H](O)[C@H]3O)c2n1` [Compound 10], 61.5 µM.
